One test concerns the target c-src tyrosine kinase (Homo sapiens, UniProt P12931). The experiment in a line: c-src tyrosine kinase assay. It counts as biochemical. Conditions: 15 μM ATP. As to the method:
(§1) Kinases activities were assayed in Buffer A or C (unless otherwise stated), at 30° C., at a final ATP concentration of 15 μM. Blank values were subtracted and activities calculated as pmoles of phosphate incorporated for a 10 min. incubation (usually expressed in % of the maximal activity, i.e. without inhibitors). Controls were performed with appropriate dilutions of Me2SO. In some cases phosphorylation of the substrate was assessed by autoradiography after SDS-PAGE. IC50 values were estimated from the dose-response curves. • CDK1/cyclin B was extracted in homogenisation buffer from M phase starfish (Marthasterias glacialis) oocytes and purified by affinity chromatography on p9^CKShs1-Sepharose beads, from which it was eluted by free p9^CKShs1 as described. The kinase activity was assayed in buffer C, with 1 mg histone H1/ml, in the presence of 15 μM [γ-^32P] ATP (3,000 Ci/mmol; 1 mCi/ml) in a final volume of 30 μl. After 10 min. incubation at 30° C., 25 μl aliquots of supernatant were spotted onto 2.5×3 cm pieces of Whatman P81 phosphocellulose paper, and, 20 sec. later, the filters were washed five times (for at least 5 min. each time) in a solution of 10 ml phosphoric acid/liter of water. The wet filters were counted in the presence of 1 ml ACS (Amersham) scintillation fluid. • GSK-3β was either purified from rabbit muscle or expressed in and purified from insect Sf9 cells. […]

For test [1], the system named is GSK-3β like activity in Sf9 cells. The experiment in a line: Tau (htau23) phosphorylation in Sf9 cells, Western blotting. The note with it: 50 μM, 5 hrs, Sf9 cells expressing htau23. It is filed as cell-based.
Description: Cells and viruses. Sf9 cells (InVitrogen, San Diego, Calif.) were grown at 27° C. in monolayer culture Grace's medium (Gibco BRL, Gaithersburg, Md.) supplemented with 10% fetal bovine serum and 50 μg gentamycin/ml and 2.5 μg amphotericin/ml. BaculoGold was obtained from PharMingen (San Diego, Calif.), pVL1392 from In Vitrogen.
Tau transfection. The gene for htau23, the shortest human tau isoform [27] was excised from the bacterial expression vector pNG2 [28] with XbaI and BamHI, and inserted into the baculovirus transfer vector pVL1392 cut with the same restriction endonucleases. The BaculoGold system was used to construct the tau baculovirus containing vector. The BaculoGold DNA is a modified type of baculovirus containing a lethal deletion. Cotransfection of the BaculoGold DNA with a complementing baculovirus transfer vector rescued the lethal deletion of this virus DNA and reconstituted viable virus particles carrying the htau23 coding sequence. Plasmid DNA used for transfections was purified using QIAGEN cartridges (Hilden, Germany). Sf9 cells grown in monolayers (2×10^6 cells in a 60 mm cell culture dish) were cotransfected with baculovirus DNA (0.5 μg BaculoGold DNA) and with vector derivatives of pVL1392 (2 μg) using a calcium phosphate coprecipitation method. […]
A further test addresses cdk6/cyclin D2 (Homo sapiens, UniProt Q00534). The experiment in a line: cdk6/cyclin D2 kinase assay. It is filed as biochemical. The note with it: 15 μM ATP. As to the method: as §1
The next test addresses CDK1/cyclin B. The experiment in a line: CDK1/cyclin B kinase assay (histone H1). It is filed as biochemical, starfish (Marthasterias glacialis). As to the method:
(§2) Kinases activities were assayed in Buffer A or C (unless otherwise stated), at 30° C., at a final ATP concentration of 15 μM. Blank values were subtracted and activities calculated as pmoles of phosphate incorporated for a 10 min. incubation (usually expressed in % of the maximal activity, i.e. without inhibitors). Controls were performed with appropriate dilutions of Me2SO. In some cases phosphorylation of the substrate was assessed by autoradiography after SDS-PAGE. IC50 values were estimated from the dose-response curves. • CDK1/cyclin B was extracted in homogenisation buffer from M phase starfish (Marthasterias glacialis) oocytes and purified by affinity chromatography on p9^CKShs1-Sepharose beads, from which it was eluted by free p9^CKShs1 as described. The kinase activity was assayed in buffer C, with 1 mg histone H1/ml, in the presence of 15 μM [γ-^32P] ATP (3,000 Ci/mmol; 1 mCi/ml) in a final volume of 30 μl. After 10 min. incubation at 30° C., 25 μl aliquots of supernatant were spotted onto 2.5×3 cm pieces of Whatman P81 phosphocellulose paper, and, 20 sec. later, the filters were washed five times (for at least 5 min. each time) in a solution of 10 ml phosphoric acid/liter of water. The wet filters were counted in the presence of 1 ml ACS (Amersham) scintillation fluid. • GSK-3β was either purified from rabbit muscle or expressed in and purified from insect Sf9 cells. It was assayed, following a 1/100 dilution in 1 mg BSA/ml 10 mM DTT, with 5 μl 40 μM GS-1 peptide as a substrate, in buffer A, in the presence of 15 μM [γ-^32P] ATP (3,000 Ci/mmol; 1 mCi/ml) in a final volume of 30 μl. […] Its activity was assayed in buffer C as described for CDK1/cyclin B. • CDK2/cyclin A, CDK2/cyclin E, CDK3/cyclin E, CDK4/cyclin D1, CDK6/cyclin D2, His-tagged erk1 and erk2, protein kinase C isoforms, the catalytic subunit of cAMP-dependent protein kinase, cGMP-dependent protein kinase, Myosin light chain kinase, casein kinases 1 & 2, ASK-γ (a plant homologue of GSK-3), insulin receptor tyrosine kinase domain (CIRK-41), c-raf, MAPKK, c-jun N terminal kinase (obtained from Promega), c-src kinase and v-abl kinase were assayed as described. Electrophoresis and Western Blotting

The next test concerns the target cdk2/cyclin A (Homo sapiens, UniProt P24941). In words: cdk2/cyclin A kinase assay. It counts as biochemical. Conditions: 15 μM ATP. As to the method: as §1
Another test concerns the target CDK5/p35 (Rattus norvegicus, UniProt Q03114). In words: In vivo Pak1 phosphorylation in cultured E18 cortical neurones. Set-up: endogenous in cells; host or cells: primary cortical neurones from E18 rat embryos. The note with it: 1 hour exposure. It counts as cell-based. Here is the method:
HD was added onto cultured neurones obtained from E18 rat embryo cortices when the cultures were 4 days old. As a control DMSO was used to the maximal volume of drug used (7.5 μl). The drug was left on the cells for 1 hour. The cells were then lysed on ice in STM buffer and the membrane fraction isolated with STM containing 0.5% NP-40 [17].
Pak1 immunoprecipitations were carried out using a specific polyclonal antibody, followed by kinase assays using histone H4 as a a substrate. The amount of H4 phosphorylation, reflecting the level of Pak1 activity, was determined by measuring the intensity of the bands on autoradiography film and quantitating with NIH imaging program.
As loading controls Pak1 and p35 western blots were made. The latter protein increases in amount with the level of CDK5/p35 kinase inhibition.

The next test deals with Eg2 kinase (Xenopus laevis, UniProt Q91820). In words: Eg2 kinase assay. It is filed as biochemical. The note with it: 15 μM ATP. As to the method:
Enzyme activities were assayed as described in the Experimental Procedures section, in the presence of increasing HD concentrations. IC50's were calculated from the dose-response curves.−, no effect at the highest dose tested (in parentheses).

The target in another test is casein kinase 1. The experiment in a line: casein kinase 1 assay. It counts as biochemical. The note with it: 15 μM ATP; −(x) = no effect at highest concentration x tested; read-out: IC50 casein kinase 1 (CK 1). Here is the method:
as §2

Another test concerns P388 cell line. The experiment in a line: Inhibition of cell proliferation, P388. It counts as cell-based. The note with it: Mus musculus, P388; read-out: IC50 on P388 cell line in μM (parentheses).
The next test has as its target cdk4/cyclin D1 (Homo sapiens, UniProt P11802). The experiment in a line: cdk4/cyclin D1 kinase assay. It is filed as biochemical. Conditions: 15 μM ATP. Here is the method: as §1
The target of a further test is protein kinase C γ (Homo sapiens, UniProt P05129). The experiment in a line: protein kinase C γ assay. It is filed as biochemical. The note with it: 15 μM ATP. As to the method: as §1
For a further test, the target named is cdk3/cyclin E (Homo sapiens, UniProt Q00526). In words: cdk3/cyclin E kinase assay. It counts as biochemical. The note with it: 15 μM ATP. As to the method:
as §1

The test system of another test is colon, KM20L2. In words: Human cancer cell line KM20L2 proliferation. It counts as cell-based. Conditions: KM-20L2.
Another test concerns brain, SF-295. The experiment in a line: Human cancer cell line SF-295 proliferation. It is filed as cell-based.

Values after ≈ are worked out from the molar mass of the structure shown.

cdk3/cyclin E, sequence (Q00526 whole entry, species assumed): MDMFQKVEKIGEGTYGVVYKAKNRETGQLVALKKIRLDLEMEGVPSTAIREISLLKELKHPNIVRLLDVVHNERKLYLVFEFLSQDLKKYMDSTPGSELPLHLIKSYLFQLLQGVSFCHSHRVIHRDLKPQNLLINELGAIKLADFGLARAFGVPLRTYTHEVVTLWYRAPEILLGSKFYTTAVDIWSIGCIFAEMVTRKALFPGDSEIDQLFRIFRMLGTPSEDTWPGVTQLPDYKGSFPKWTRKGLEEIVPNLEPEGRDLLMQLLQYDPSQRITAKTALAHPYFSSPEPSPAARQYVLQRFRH
cdk3/cyclin E, sequence (P24864 whole entry partner, species assumed): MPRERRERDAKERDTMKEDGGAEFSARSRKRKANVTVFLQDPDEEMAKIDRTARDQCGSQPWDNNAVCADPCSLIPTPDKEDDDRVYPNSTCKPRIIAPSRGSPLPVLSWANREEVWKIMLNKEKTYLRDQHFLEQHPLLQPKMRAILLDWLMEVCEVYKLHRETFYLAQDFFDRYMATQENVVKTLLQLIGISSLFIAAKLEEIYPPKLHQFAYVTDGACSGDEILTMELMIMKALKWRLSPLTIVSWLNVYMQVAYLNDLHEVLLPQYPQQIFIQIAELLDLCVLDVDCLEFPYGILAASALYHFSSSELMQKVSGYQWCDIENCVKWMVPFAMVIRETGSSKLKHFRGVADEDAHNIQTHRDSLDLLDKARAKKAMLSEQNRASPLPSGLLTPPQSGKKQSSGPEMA
cdk4/cyclin D1, sequence (P11802 whole entry, species assumed): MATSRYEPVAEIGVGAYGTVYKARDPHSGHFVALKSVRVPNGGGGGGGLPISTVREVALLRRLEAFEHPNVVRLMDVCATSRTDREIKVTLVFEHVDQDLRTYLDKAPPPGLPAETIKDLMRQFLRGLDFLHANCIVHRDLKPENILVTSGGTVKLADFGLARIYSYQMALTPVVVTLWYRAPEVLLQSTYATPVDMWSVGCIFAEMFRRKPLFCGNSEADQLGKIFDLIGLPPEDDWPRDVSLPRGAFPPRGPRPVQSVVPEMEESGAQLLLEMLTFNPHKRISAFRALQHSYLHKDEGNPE
cdk4/cyclin D1, sequence (P24385 whole entry partner, species assumed): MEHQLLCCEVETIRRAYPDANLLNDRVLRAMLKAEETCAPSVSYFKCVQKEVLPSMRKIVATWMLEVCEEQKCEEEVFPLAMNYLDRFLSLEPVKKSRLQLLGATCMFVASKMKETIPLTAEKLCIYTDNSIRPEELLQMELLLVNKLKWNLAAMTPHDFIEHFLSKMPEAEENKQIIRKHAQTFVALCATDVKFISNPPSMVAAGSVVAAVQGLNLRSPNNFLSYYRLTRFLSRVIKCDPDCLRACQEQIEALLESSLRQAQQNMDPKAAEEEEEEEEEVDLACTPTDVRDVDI
c-src tyrosine kinase, sequence (P12931 whole entry): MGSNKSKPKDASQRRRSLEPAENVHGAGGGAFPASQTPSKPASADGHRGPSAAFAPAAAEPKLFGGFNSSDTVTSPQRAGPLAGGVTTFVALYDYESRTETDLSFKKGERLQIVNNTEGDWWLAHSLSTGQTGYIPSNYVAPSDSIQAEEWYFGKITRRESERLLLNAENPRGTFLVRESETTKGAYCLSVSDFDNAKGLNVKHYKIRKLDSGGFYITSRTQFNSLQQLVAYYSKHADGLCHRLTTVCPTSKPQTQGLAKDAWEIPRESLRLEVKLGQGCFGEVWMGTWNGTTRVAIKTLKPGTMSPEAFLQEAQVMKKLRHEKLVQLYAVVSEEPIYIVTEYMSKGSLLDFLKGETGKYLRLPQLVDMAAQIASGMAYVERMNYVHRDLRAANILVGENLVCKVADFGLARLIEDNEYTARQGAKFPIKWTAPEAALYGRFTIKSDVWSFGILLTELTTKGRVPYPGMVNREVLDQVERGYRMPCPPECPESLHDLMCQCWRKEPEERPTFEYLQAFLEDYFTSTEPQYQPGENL
cdk6/cyclin D2, sequence (Q00534 whole entry, species assumed): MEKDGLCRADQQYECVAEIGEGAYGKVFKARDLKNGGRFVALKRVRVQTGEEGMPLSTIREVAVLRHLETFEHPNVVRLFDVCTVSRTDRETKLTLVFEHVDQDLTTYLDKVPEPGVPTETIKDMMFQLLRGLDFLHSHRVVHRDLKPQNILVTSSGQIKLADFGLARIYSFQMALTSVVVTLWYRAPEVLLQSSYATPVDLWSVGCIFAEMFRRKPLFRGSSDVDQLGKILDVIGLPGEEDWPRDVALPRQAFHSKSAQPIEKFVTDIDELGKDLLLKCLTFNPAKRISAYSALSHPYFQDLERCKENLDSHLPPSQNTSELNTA
cdk6/cyclin D2, sequence (P30279 whole entry partner, species assumed): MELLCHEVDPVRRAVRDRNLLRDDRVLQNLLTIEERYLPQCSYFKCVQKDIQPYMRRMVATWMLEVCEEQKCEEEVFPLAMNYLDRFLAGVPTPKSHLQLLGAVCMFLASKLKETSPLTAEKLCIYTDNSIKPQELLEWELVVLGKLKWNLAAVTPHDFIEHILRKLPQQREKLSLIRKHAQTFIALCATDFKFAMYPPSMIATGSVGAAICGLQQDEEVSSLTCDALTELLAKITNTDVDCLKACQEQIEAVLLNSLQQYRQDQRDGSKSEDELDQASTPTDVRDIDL
CDK5/p35, sequence (Q03114 whole entry): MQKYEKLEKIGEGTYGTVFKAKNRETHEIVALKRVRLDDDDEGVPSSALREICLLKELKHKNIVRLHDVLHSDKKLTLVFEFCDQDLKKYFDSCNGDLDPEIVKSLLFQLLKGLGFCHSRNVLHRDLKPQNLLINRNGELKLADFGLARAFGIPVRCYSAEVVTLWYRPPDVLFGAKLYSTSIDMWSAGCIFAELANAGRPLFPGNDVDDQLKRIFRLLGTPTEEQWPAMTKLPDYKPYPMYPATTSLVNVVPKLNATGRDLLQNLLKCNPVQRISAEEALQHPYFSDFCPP
CDK5/p35, sequence (P61810 2-307 partner limits assumed): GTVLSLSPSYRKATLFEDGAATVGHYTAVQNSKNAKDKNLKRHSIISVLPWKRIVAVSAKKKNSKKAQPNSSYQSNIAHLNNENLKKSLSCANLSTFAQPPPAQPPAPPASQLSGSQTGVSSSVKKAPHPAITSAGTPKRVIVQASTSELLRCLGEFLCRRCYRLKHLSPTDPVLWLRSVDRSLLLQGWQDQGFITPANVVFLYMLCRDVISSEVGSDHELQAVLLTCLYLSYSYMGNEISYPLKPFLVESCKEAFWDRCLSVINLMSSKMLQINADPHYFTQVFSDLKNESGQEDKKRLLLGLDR
Eg2 kinase, sequence (Q91820 whole entry): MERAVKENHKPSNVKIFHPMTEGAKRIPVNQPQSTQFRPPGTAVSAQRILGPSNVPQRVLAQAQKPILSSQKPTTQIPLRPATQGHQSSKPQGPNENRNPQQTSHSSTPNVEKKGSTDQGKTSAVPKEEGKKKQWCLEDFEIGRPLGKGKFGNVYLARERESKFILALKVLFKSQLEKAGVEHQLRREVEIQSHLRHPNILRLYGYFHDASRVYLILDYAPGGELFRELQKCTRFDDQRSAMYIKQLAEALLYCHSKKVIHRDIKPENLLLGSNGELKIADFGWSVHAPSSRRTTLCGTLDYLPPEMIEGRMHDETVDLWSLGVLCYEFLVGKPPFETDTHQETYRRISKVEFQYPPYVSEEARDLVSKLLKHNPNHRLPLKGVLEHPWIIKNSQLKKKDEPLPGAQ

What is called IC50 is the point on the concentration scale where inhibition reaches its midpoint. For the molecule `NC1=NC(=O)C(=C2CCNC(=O)c3[nH]c(Br)cc32)N1` [hymenialdisine, 4-(2-amino-4-oxo-2-imidazolin-5-ylidene)-2-bromo-4,5,6,7-tetrahydropyrrolo (2,3-c) azepine-8-one], the IC50 at c-src tyrosine kinase turned out to be 7000 nM; on cdk6/cyclin D2, 700 nM; on CDK1/cyclin B it was 22 nM; on cdk2/cyclin A, 70 nM; against Eg2 kinase, 4000 nM; at casein kinase 1 it was 35 nM. The IC50 is 9.9 µM with P388 cell line; 600 nM against cdk4/cyclin D1; 500 nM against protein kinase C γ; 100 nM on cdk3/cyclin E; 8.5 µg/mL (≈ 26.2 µM) in the test with colon, KM20L2; 38.9 µg/mL (≈ 120 µM) with brain, SF-295. Also, in test [1], the “AT100 signal (tau phosphorylated at T212 and S214)” value is on record as “disappearance of AT100 signal”. For the same molecule, at CDK5/p35, the “Pak1 activity (H4 phosphorylation) in neurons” value is “increase in Pak1 activity”.

Source of the values: patent US7098204B2 (C.N.R.S., priority 1999, dated 2006).
